System: MV-4-11 cells
Assay: Gene expression microarray analysis (Affymetrix PrimeView) and GSEA
Assay type: cell-based, human
Parameters: RFU PODN (11730768_x_at) / Fold change /veh PODN (11730768_x_at) / RFU LINC00158 (11744669_a_at) / Fold change /veh LINC00158 (11744669_a_at) / RFU DUSP10 (11751237_a_at) / Fold change /veh DUSP10 (11751237_a_at) / RFU ID3 (11757404_x_at) / Fold change /veh ID3 (11757404_x_at) / RFU PLEKHG5 (11737974_s_at) / Fold change /veh PLEKHG5 (11737974_s_at) / RFU LRRC4B (11730491_at) / Fold change /veh LRRC4B (11730491_at) / RFU GIMAP4 (11747438_a_at) / Fold change /veh GIMAP4 (11747438_a_at) / RFU KRT8 (11758183_x_at) / Fold change /veh KRT8 (11758183_x_at) / RFU CNN1 (11734310_a_at) / Fold change /veh CNN1 (11734310_a_at) / RFU VPS37D (11726825_at) / Fold change /veh VPS37D (11726825_at) / RFU C10orf10 (11716522_x_at) / Fold change /veh C10orf10 (11716522_x_at) / RFU KIR2DL2 /// KIR2DL4 /// KIR2DL5A /// KIR2DL5B /// KIR2DS1 /// KIR2DS2 /// KIR2DS3 /// KIR2DS4 /// KIR3DL3 /// KIR3DL3 /// KIR3DS1 (11738374_at) / Fold change /veh KIR2DL2 /// KIR2DL4 /// KIR2DL5A /// KIR2DL5B /// KIR2DS1 /// KIR2DS2 /// KIR2DS3 /// KIR2DS4 /// KIR3DL3 /// KIR3DL3 /// KIR3DS1 (11738374_at) / RFU C1QL1 (11718748_at) / Fold change /veh C1QL1 (11718748_at) / RFU TMPRSS4 (11747572_a_at) / Fold change /veh TMPRSS4 (11747572_a_at) / RFU HAMP (11756126_x_at) / Fold change /veh HAMP (11756126_x_at) / RFU RNFT2 (11725882_a_at) / Fold change /veh RNFT2 (11725882_a_at) / RFU NR4A2 (11747474_a_at) / Fold change /veh NR4A2 (11747474_a_at) / RFU ABCC12 (11746883_a_at) / Fold change /veh ABCC12 (11746883_a_at) / RFU TMEM136 (11760407_x_at) / Fold change /veh TMEM136 (11760407_x_at) / RFU CLDN22 /// WWC2 (11732394_at) / Fold change /veh CLDN22 /// WWC2 (11732394_at) / RFU HLA-DPB1 (11760878_x_at) / Fold change /veh HLA-DPB1 (11760878_x_at) / RFU SPINT1 (11716480_a_at) / Fold change /veh SPINT1 (11716480_a_at) / RFU GAP43 (11754022_s_at) / Fold change /veh GAP43 (11754022_s_at) / RFU A4GNT (11735810_at) / Fold change /veh A4GNT (11735810_at) / RFU PRB3 (11715151_x_at) / Fold change /veh PRB3 (11715151_x_at) / RFU TUBB4B (11761932_at) / Fold change /veh TUBB4B (11761932_at) / RFU CAPN14 (11732068_a_at) / Fold change /veh CAPN14 (11732068_a_at) / RFU TMCC2 (11721928_a_at) / Fold change /veh TMCC2 (11721928_a_at) / RFU IRGQ (11745062_a_at) / Fold change /veh IRGQ (11745062_a_at) / RFU FAM174B (11720279_a_at) / Fold change /veh FAM174B (11720279_a_at) / RFU TMPRSS4 (11748680_a_at) / Fold change /veh TMPRSS4 (11748680_a_at) / RFU FAM212B (11763350_a_at) / Fold change /veh FAM212B (11763350_a_at) / RFU PLEKHG5 (11743358_a_at) / Fold change /veh PLEKHG5 (11743358_a_at) / RFU ZSCAN30 (11745921_a_at) / Fold change /veh ZSCAN30 (11745921_a_at) / RFU CMKLR1 (11741424_a_at) / Fold change /veh CMKLR1 (11741424_a_at) / RFU LOC101060620 /// MAPK8IP1 (11723275_at) / Fold change /veh LOC101060620 /// MAPK8IP1 (11723275_at) / RFU SPTSSB (11747773_x_at) / Fold change /veh SPTSSB (11747773_x_at) / RFU PRSS12 (11739890_at) / Fold change /veh PRSS12 (11739890_at) / RFU BIN1 (11741810_x_at) / Fold change /veh BIN1 (11741810_x_at) / RFU WNT11 (11732464_a_at) / Fold change /veh WNT11 (11732464_a_at) / RFU C10orf10 (11716521_a_at) / Fold change /veh C10orf10 (11716521_a_at) / RFU C5orf56 (11738089_at) / Fold change /veh C5orf56 (11738089_at) / RFU CYB561 (11721691_x_at) / Fold change /veh CYB561 (11721691_x_at) / RFU ANKRD19P (11752326_a_at) / Fold change /veh ANKRD19P (11752326_a_at) / RFU OR2T12 /// OR2T33 /// OR2T8 (11738714_s_at) / Fold change /veh OR2T12 /// OR2T33 /// OR2T8 (11738714_s_at) / RFU VCAN (11748164_a_at) / Fold change /veh VCAN (11748164_a_at) / RFU JSRP1 (11732532_at) / Fold change /veh JSRP1 (11732532_at) / RFU KRTAP10-11 (11738290_x_at) / Fold change /veh KRTAP10-11 (11738290_x_at) / RFU MYO3A (11730013_a_at) / Fold change /veh MYO3A (11730013_a_at) / RFU EBF3 (11725865_a_at) / Fold change /veh EBF3 (11725865_a_at) / RFU CAMK2N1 (11719241_x_at) / Fold change /veh CAMK2N1 (11719241_x_at) / RFU C5orf56 (11738088_a_at) / Fold change /veh C5orf56 (11738088_a_at) / RFU OLFML3 (11715873_a_at) / Fold change /veh OLFML3 (11715873_a_at) / RFU LOC100653217 /// NTM (11731650_a_at) / Fold change /veh LOC100653217 /// NTM (11731650_a_at) / RFU MAPK11 (11762145_a_at) / Fold change /veh MAPK11 (11762145_a_at) / RFU FIZ1 (11724087_x_at) / Fold change /veh FIZ1 (11724087_x_at) / RFU OASL (11726364_x_at) / Fold change /veh OASL (11726364_x_at) / RFU SOX15 (11748057_x_at) / Fold change /veh SOX15 (11748057_x_at) / RFU CD79A (11719716_a_at) / Fold change /veh CD79A (11719716_a_at) / RFU HIST1H1D (11736915_at) / Fold change /veh HIST1H1D (11736915_at) / RFU CASKIN2 (11723855_a_at) / Fold change /veh CASKIN2 (11723855_a_at) / RFU LOC730098 (11760151_x_at) / Fold change /veh LOC730098 (11760151_x_at) / RFU OR4N2 (11742367_at) / Fold change /veh OR4N2 (11742367_at) / RFU PRRT2 (11749266_a_at) / Fold change /veh PRRT2 (11749266_a_at) / RFU SNX32 (11753110_a_at) / Fold change /veh SNX32 (11753110_a_at) / RFU CDHR5 (11726645_a_at) / Fold change /veh CDHR5 (11726645_a_at) / RFU RCAN1 (11760418_a_at) / Fold change /veh RCAN1 (11760418_a_at) / RFU FAM167A (11723789_a_at) / Fold change /veh FAM167A (11723789_a_at) / RFU FAM26E (11764081_at) / Fold change /veh FAM26E (11764081_at) / RFU ISYNA1 (11749810_s_at) / Fold change /veh ISYNA1 (11749810_s_at) / RFU ACY1 (11761880_at) / Fold change /veh ACY1 (11761880_at) / RFU 11764098_at / Fold change /veh 11764098_at / RFU SAMD14 (11745864_x_at) / Fold change /veh SAMD14 (11745864_x_at) / RFU NPB (11741838_a_at) / Fold change /veh NPB (11741838_a_at) / RFU TMPRSS6 (11731388_a_at) / Fold change /veh TMPRSS6 (11731388_a_at) / RFU KRTAP10-2 (11738614_at) / Fold change /veh KRTAP10-2 (11738614_at) / RFU ARHGAP8 /// PRR5-ARHGAP8 (11727945_x_at) / Fold change /veh ARHGAP8 /// PRR5-ARHGAP8 (11727945_x_at) / RFU KRTAP5-7 /// NADSYN1 (11734609_at) / Fold change /veh KRTAP5-7 /// NADSYN1 (11734609_at) / RFU RASL12 (11751679_a_at) / Fold change /veh RASL12 (11751679_a_at) / RFU CDKN2B (11736163_a_at) / Fold change /veh CDKN2B (11736163_a_at) / RFU PRF1 (11729649_at) / Fold change /veh PRF1 (11729649_at) / RFU, ZNF638 /// ZNF638-IT1 / Fold change vs veh, ZNF638 /// ZNF638-IT1 / RFU, PANK3 / Fold change vs veh, PANK3 / RFU, SH3YL1 / Fold change vs veh, SH3YL1 / RFU, ZEB2 / Fold change vs veh, ZEB2 / RFU, NRIP1 / Fold change vs veh, NRIP1 / RFU, PTTG1IP / Fold change vs veh, PTTG1IP / RFU, CAPN2 / Fold change vs veh, CAPN2 / RFU, MED14 / Fold change vs veh, MED14 / RFU, SNORA58 / Fold change vs veh, SNORA58 / RFU, C1orf63 / Fold change vs veh, C1orf63 / RFU, LRRFIP1 / Fold change vs veh, LRRFIP1 / RFU, NDUFAF7 / Fold change vs veh, NDUFAF7 / RFU, SLC12A2 / Fold change vs veh, SLC12A2 / RFU, IBTK / Fold change vs veh, IBTK / RFU, ESF1 / Fold change vs veh, ESF1 / Fold change vs veh, TMEM50B / RFU, TAOK1 / Fold change vs veh, TAOK1 / RFU, ACBD3 / Fold change vs veh, ACBD3 / RFU, TMA16 / Fold change vs veh, TMA16 / RFU, RWDD3 / Fold change vs veh, RWDD3 / RFU, BCAT1 / Fold change vs veh, BCAT1 / RFU, EDEM3 / Fold change vs veh, EDEM3 / RFU, TMEM33 / Fold change vs veh, TMEM33 / RFU, WDR75 / Fold change vs veh, WDR75 / RFU, AHCTF1 / Fold change vs veh, AHCTF1 / RFU, TFRC / Fold change vs veh, TFRC / RFU, ZDHHC17 / Fold change vs veh, ZDHHC17 / RFU, NOM1 / Fold change vs veh, NOM1 / RFU, ARL8B / Fold change vs veh, ARL8B / RFU, ZBTB11 / Fold change vs veh, ZBTB11 / RFU, TAMM41 / Fold change vs veh, TAMM41 / RFU, KIAA1704 /// LOC100996395 / Fold change vs veh, KIAA1704 /// LOC100996395 / RFU, ING1 / Fold change vs veh, ING1 / RFU, TRMT61B / Fold change vs veh, TRMT61B / RFU, FUBP3 / Fold change vs veh, FUBP3 / RFU, TP53 / Fold change vs veh, TP53 / RFU, TNKS2 / Fold change vs veh, TNKS2 / RFU, ZFP14 / Fold change vs veh, ZFP14 / RFU, ACTR2 / Fold change vs veh, ACTR2 / RFU, PPP3R1 / Fold change vs veh, PPP3R1 / RFU, PIK3R1 / Fold change vs veh, PIK3R1 / RFU, HNRNPA1 / Fold change vs veh, HNRNPA1 / RFU, RNF170 / Fold change vs veh, RNF170 / RFU, ZNF28 / Fold change vs veh, ZNF28 / RFU, RNGTT / Fold change vs veh, RNGTT / RFU, OGT / Fold change vs veh, OGT / RFU, BRD1 / Fold change vs veh, BRD1 / RFU, MARS / Fold change vs veh, MARS / RFU, ZNF655 / Fold change vs veh, ZNF655 / RFU, FAHD1 / Fold change vs veh, FAHD1 / RFU, BDP1 / Fold change vs veh, BDP1 / RFU, LRRCC1 / Fold change vs veh, LRRCC1 / RFU, ARID1A / Fold change vs veh, ARID1A / RFU, ZNF146 / Fold change vs veh, ZNF146 / RFU, ZNF330 / Fold change vs veh, ZNF330 / RFU, GPN3 / Fold change vs veh, GPN3 / RFU, C9orf123 / Fold change vs veh, C9orf123 / RFU, N4BP2L2 / Fold change vs veh, N4BP2L2 / RFU, ARFIP1 / Fold change vs veh, ARFIP1 / RFU, FAM179B / Fold change vs veh, FAM179B / RFU, BCL10 / Fold change vs veh, BCL10 / RFU, UHRF1BP1L / Fold change vs veh, UHRF1BP1L / RFU, BET1 / Fold change vs veh, BET1 / RFU, CNOT2 / Fold change vs veh, CNOT2 / RFU, ZNF268 / Fold change vs veh, ZNF268 / Fold change vs veh, ZNF507 / RFU, DGCR2 / Fold change vs veh, DGCR2 / RFU, WDSUB1 / Fold change vs veh, WDSUB1 / Fold change vs veh, HSP90B1 /// MIR3652 / RFU, ADSS / Fold change vs veh, ADSS / RFU, GK / Fold change vs veh, GK / RFU, ZNF148 / Fold change vs veh, ZNF148 / RFU, TAF9 / Fold change vs veh, TAF9 / RFU, SLC1A5 / Fold change vs veh, SLC1A5 / RFU, SLMO2 / Fold change vs veh, SLMO2 / RFU, ABCC4 / Fold change vs veh, ABCC4 / RFU, LOC101060439 /// RAP1B / Fold change vs veh, LOC101060439 /// RAP1B / RFU, RFX7 / Fold change vs veh, RFX7 / RFU, GTPBP10 / Fold change vs veh, GTPBP10 / RFU, CNEP1R1 / Fold change vs veh, CNEP1R1 / RFU, BIVM-ERCC5 /// ERCC5 / Fold change vs veh, BIVM-ERCC5 /// ERCC5 / RFU, ILF3 / Fold change vs veh, ILF3 / RFU 11762660_at / Fold change /veh 11762660_at / RFU VCAN (11757783_s_at) / Fold change /veh VCAN (11757783_s_at) / RFU DDX43 (11728927_at) / Fold change /veh DDX43 (11728927_at) / RFU KRT8 (11758188_x_at) / Fold change /veh KRT8 (11758188_x_at) / RFU NKD1 (11759106_at) / Fold change /veh NKD1 (11759106_at) / RFU SRD5A1 (11742802_a_at) / Fold change /veh SRD5A1 (11742802_a_at) / RFU TPSAB1 /// TPSB2 (11721975_s_at) / Fold change /veh TPSAB1 /// TPSB2 (11721975_s_at) / RFU GSTM3 (11746129_a_at) / Fold change /veh GSTM3 (11746129_a_at) / RFU IL23R (11737362_x_at) / Fold change /veh IL23R (11737362_x_at) / RFU TMEM51 (11727254_a_at) / Fold change /veh TMEM51 (11727254_a_at) / RFU PIWIL2 (11732686_x_at) / Fold change /veh PIWIL2 (11732686_x_at) / RFU ORM1 (11744905_x_at) / Fold change /veh ORM1 (11744905_x_at) / RFU CCDC152 (11743942_at) / Fold change /veh CCDC152 (11743942_at) / RFU ECM1 (11717891_a_at) / Fold change /veh ECM1 (11717891_a_at) / RFU IL23R (11748794_a_at) / Fold change /veh IL23R (11748794_a_at) / RFU TNFAIP8L3 (11732012_x_at) / Fold change /veh TNFAIP8L3 (11732012_x_at) / RFU MBOAT4 (11741988_at) / Fold change /veh MBOAT4 (11741988_at) / RFU 11764193_at / Fold change /veh 11764193_at / RFU TMEM53 (11763286_at) / Fold change /veh TMEM53 (11763286_at) / RFU MAGEB2 (11727129_at) / Fold change /veh MAGEB2 (11727129_at) / RFU TMEM200A (11744735_a_at) / Fold change /veh TMEM200A (11744735_a_at) / RFU CCDC152 (11751479_a_at) / Fold change /veh CCDC152 (11751479_a_at) / RFU FAM211A (11726209_a_at) / Fold change /veh FAM211A (11726209_a_at) / RFU RGS16 (11746705_a_at) / Fold change /veh RGS16 (11746705_a_at) / RFU VCAN (11755009_s_at) / Fold change /veh VCAN (11755009_s_at) / RFU RHOB (11743442_s_at) / Fold change /veh RHOB (11743442_s_at) / RFU RGS16 (11720943_a_at) / Fold change /veh RGS16 (11720943_a_at) / RFU RGS16 (11720944_at) / Fold change /veh RGS16 (11720944_at) / RFU, VPS4B / Fold change vs veh, VPS4B / RFU, CREB1 / Fold change vs veh, CREB1 / RFU, DNAJC13 / Fold change vs veh, DNAJC13 / RFU, GNAQ / Fold change vs veh, GNAQ / RFU, CDK5R1 / Fold change vs veh, CDK5R1 / RFU, ZRANB3 / Fold change vs veh, ZRANB3 / RFU, CUL4A / Fold change vs veh, CUL4A / RFU, CCNY / Fold change vs veh, CCNY / RFU, UFL1 / Fold change vs veh, UFL1 / RFU, COG3 / Fold change vs veh, COG3 / RFU, DIAPH2 / Fold change vs veh, DIAPH2 / RFU, SKA2 / Fold change vs veh, SKA2 / RFU, AFF3 / Fold change vs veh, AFF3 / RFU, LMF1 / Fold change vs veh, LMF1 / RFU, IPO11 / Fold change vs veh, IPO11 / RFU, DFFB / Fold change vs veh, DFFB / RFU, FOXP1 / Fold change vs veh, FOXP1 / RFU, CARD8 / Fold change vs veh, CARD8 / RFU, STRN3 / Fold change vs veh, STRN3 / RFU, ADK / Fold change vs veh, ADK / RFU, RASSF2 / Fold change vs veh, RASSF2 / RFU, WIPF1 / Fold change vs veh, WIPF1 / RFU, LARP1B / Fold change vs veh, LARP1B / RFU, RASA1 / Fold change vs veh, RASA1 / RFU, RB1 / Fold change vs veh, RB1 / RFU, PPFIA1 / Fold change vs veh, PPFIA1 / RFU, MAT2A / Fold change vs veh, MAT2A / RFU, CCT5 / Fold change vs veh, CCT5 / RFU, WDR92 / Fold change vs veh, WDR92 / RFU, CUX1 / Fold change vs veh, CUX1 / RFU, TTC7A / Fold change vs veh, TTC7A / RFU, TMEM135 / Fold change vs veh, TMEM135 / RFU, DEPTOR / Fold change vs veh, DEPTOR / RFU, CPM / Fold change vs veh, CPM / RFU, DNAJB6 / Fold change vs veh, DNAJB6 / RFU, CACNA2D3 / Fold change vs veh, CACNA2D3 / RFU, DTX4 / Fold change vs veh, DTX4 / RFU, TFCP2 / Fold change vs veh, TFCP2 / RFU, GMCL1 /// GMCL1P1 / Fold change vs veh, GMCL1 /// GMCL1P1 / RFU, AEBP2 / Fold change vs veh, AEBP2 / RFU, SNHG1 /// SNORD22 /// SNORD25 /// SNORD26 /// SNORD27 /// SNORD28 /// SNORD29 /// SNORD31 / Fold change vs veh, SNHG1 /// SNORD22 /// SNORD25 /// SNORD26 /// SNORD27 /// SNORD28 /// SNORD29 /// SNORD31 / Fold change (Aza/veh), C12orf56 (ProbeSet 11735607_a_at) / Fold change (ACY-1035/veh), C12orf56 (ProbeSet 11735607_a_at) / Fold change (Aza/veh), FGFR1OP (ProbeSet 11751329_s_at) / Fold change (ACY-1035/veh), FGFR1OP (ProbeSet 11751329_s_at) / Fold change (Aza/veh), VPS36 (ProbeSet 11739960_a_at) / Fold change (ACY-1035/veh), VPS36 (ProbeSet 11739960_a_at) / RFU SYPL1 (11715823_x_at) / Fold change /veh SYPL1 (11715823_x_at) / RFU IGFBP7 (11715501_s_at) / Fold change /veh IGFBP7 (11715501_s_at) / RFU REEP3 (11722064_at) / Fold change /veh REEP3 (11722064_at) / RFU IGLL1 (11728026_x_at) / Fold change /veh IGLL1 (11728026_x_at): dose or concentration left out as unconfirmed
Details: MV-4-11 cells, 48 hours

Nc1ncn([C@@H]2O[C@H](CO)[C@@H](O)[C@H]2O)c(=O)n1 [azacitidine]
RFU 11762660_at: 14.91 RFU
